Here are results for four molecules from publication PMC10745721, “Chemical Comparison and Identification of Xanthine Oxidase Inhibitors of Dioscoreae Hypoglaucae Rhizoma and Dioscoreae Spongiosae Rhizoma by Chemometric Analysis and Spectrum–Effect Relationship” (Molecules, 2023).

The experiment deals with xanthine oxidase (Bos taurus, UniProt P80457). The experiment in a line: xanthine oxidase inhibitory assay in vitro (absorbance at 295 nm, uric acid from xanthine). Format: biochemical. The settings on record: pure compounds, five concentrations each; read-out: IC50 of xanthine oxidase inhibition.
Sequence of xanthine oxidase (P80457 whole entry): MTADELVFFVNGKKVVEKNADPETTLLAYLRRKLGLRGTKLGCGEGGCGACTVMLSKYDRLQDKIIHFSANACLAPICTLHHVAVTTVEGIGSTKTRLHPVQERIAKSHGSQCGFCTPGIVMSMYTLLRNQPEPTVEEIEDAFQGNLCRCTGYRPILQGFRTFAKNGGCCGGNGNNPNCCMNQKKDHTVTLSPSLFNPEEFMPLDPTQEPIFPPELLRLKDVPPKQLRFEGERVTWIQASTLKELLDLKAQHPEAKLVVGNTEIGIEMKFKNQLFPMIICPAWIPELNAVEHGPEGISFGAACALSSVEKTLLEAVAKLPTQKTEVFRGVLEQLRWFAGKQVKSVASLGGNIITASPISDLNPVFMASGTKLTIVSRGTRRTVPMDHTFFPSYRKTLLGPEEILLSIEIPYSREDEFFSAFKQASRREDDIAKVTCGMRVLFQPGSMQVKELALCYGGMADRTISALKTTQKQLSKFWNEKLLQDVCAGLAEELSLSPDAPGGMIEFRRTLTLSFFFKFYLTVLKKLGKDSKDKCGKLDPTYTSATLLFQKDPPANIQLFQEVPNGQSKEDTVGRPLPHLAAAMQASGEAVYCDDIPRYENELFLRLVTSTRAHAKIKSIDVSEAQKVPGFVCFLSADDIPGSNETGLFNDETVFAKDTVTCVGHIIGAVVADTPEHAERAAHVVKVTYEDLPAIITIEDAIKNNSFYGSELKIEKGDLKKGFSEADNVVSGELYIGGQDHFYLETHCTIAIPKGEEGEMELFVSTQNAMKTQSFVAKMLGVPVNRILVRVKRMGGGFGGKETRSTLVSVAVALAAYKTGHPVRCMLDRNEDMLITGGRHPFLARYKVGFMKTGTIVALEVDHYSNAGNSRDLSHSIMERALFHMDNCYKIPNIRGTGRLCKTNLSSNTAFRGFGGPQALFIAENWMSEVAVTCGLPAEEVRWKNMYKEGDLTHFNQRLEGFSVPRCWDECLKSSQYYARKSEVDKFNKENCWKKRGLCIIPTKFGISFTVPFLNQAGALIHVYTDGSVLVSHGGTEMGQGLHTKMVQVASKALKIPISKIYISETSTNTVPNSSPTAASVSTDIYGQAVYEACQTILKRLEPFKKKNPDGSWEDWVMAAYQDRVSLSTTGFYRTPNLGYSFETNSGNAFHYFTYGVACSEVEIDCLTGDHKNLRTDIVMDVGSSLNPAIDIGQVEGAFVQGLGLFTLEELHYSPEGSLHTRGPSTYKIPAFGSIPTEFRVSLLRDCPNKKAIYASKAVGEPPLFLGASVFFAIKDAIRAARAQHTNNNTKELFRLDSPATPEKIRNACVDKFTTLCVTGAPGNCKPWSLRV

Procedure: For xanthine oxidase inhibition assay, 600 μL of supernatant was concentrated in a Termovap Sample Concentrator (Hangzhou Miulab Instruments Co., Ltd., Hangzhou, China) at 30 °C until elimination of solvent. The residue was redissolved in 600 μL PBS.
The xanthine oxidase inhibitory activities of DH and DS samples were determined by xanthine oxidase inhibitory activity assay in vitro [25], which was based on the increase in absorbance at 295 nm due to the production of uric acid from xanthine. In brief, 50 µL of DH or DS samples, 30 µL of phosphate buffer (70 Mm, pH 7.5), and 40 µL of xanthine oxidase (0.05 U/mL) were added into a 96-well plate. After preincubation at 25 °C for 8 min, 60 µL of xanthine (300 µM) was added. After incubation at 25 °C for 15 min, the reaction was stopped by adding 20 µL of HCl (1.0 M). The absorbance of the mixture solution was recorded at 295 nm by a microplate reader.
The control sample was prepared by adding PBS instead of tested sample. The background sample was prepared by replacing tested sample with the same volume of PBS. The blank sample was prepared by adding PBS instead of xanthine oxidase solution. All experiments were repeated three times. The inhibition ratio of xanthine oxidase was calculated as follows:Inhibition ratio (%) = [1 − (test sample-background sample/control sample-blank sample)] × 100
DH and DS samples were prepared in a series of concentrations. The xanthine oxidase inhibitory activities of DH and DS samples were evaluated by IC50 values (the concentration of the sample inhibited 50% the activity of the xanthine oxidase, and the IC50 values were calculated by a logarithmic regression curve. As DH and DS samples were mixtures of multiple constituents, the molar concentrations were uncertain. Thus, the IC50 values of anti-xanthine oxidase activities of DH and DS samples were expressed as mg/mL raw drug equivalents.

On to `CC(CCC1(O)OC2CC3C4CC=C5CC(OC6OC(CO)C(O)C(OC7OC(CO)C(O)C(O)C7O)C6OC6OC(C)C(O)C(O)C6O)CCC5(C)C4CCC3(C)C2C1C)COC1OC(CO)C(O)C(O)C1O` (stereo not shown) [protogracillin], for which the IC50 worked out at 190 µM.
For `CO[C@]1(CC[C@@H](C)CO[C@@H]2O[C@H](CO)[C@@H](O)[C@H](O)[C@H]2O)O[C@H]2C[C@H]3[C@@H]4CC=C5C[C@@H](O[C@@H]6O[C@H](CO)[C@@H](O[C@@H]7O[C@@H](C)[C@H](O)[C@@H](O)[C@H]7O)[C@H](O)[C@H]6O[C@@H]6O[C@@H](C)[C@H](O)[C@@H](O)[C@H]6O)CC[C@]5(C)[C@H]4CC[C@]3(C)[C@H]2[C@@H]1C` [methyl protodioscin] the value was 220 µM; for `CC(CCC1(O)OC2CC3C4CC=C5CC(OC6OC(CO)C(OC7OC(C)C(O)C(O)C7O)C(O)C6OC6OC(C)C(O)C(O)C6O)CCC5(C)C4CCC3(C)C2C1C)COC1OC(CO)C(O)C(O)C1O` (stereo not shown) [protodioscin], 200 µM.
For `CC1=C(CC[C@@H](C)CO[C@@H]2O[C@H](CO)[C@@H](O)[C@H](O)[C@H]2O)OC2CC3C4CC=C5CC(O[C@@H]6O[C@H](CO)[C@@H](O)[C@H](O[C@@H]7O[C@H](CO)[C@@H](O)[C@H](O)[C@H]7O)[C@H]6O[C@@H]6O[C@@H](C)[C@H](O)[C@@H](O)[C@H]6O)CC[C@]5(C)C4CC[C@]3(C)C12` (stereo partly shown) [pseudoprogracillin] the value was 250 µM.

The IC50 is the concentration that inhibits the measured activity by half.
